{"source": "paper PMC6224480", "about": "“Insights into Kinesin-1 Activation from the Crystal Structure of KLC2 Bound to JIP3” (Structure(London, England:1993), 2018)", "key": {"KLC2^TPR-myc": {"target": "T1, KLC2^TPR-myc (Mus musculus, UniProt O88448)", "T1 construct": "comprised murine KLC2 residues 191-480; His6-SUMO (N, cleaved yes); made in house; host or cells: E. coli BL21(DE3) Rosetta", "T1 sequence (O88448 191-480)": "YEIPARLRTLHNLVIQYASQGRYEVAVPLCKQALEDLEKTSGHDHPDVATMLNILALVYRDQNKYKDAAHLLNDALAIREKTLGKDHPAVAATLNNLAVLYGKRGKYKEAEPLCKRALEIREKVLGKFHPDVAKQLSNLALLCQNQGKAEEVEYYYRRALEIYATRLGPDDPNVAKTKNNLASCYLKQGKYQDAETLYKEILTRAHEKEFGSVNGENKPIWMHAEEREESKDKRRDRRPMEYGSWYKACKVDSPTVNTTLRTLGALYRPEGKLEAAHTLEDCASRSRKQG", "assay": "Fluorescence anisotropy-based binding competition against FITC-LFP motif peptide", "set-up": "species or system murine", "conditions": "FITC-LFP peptide 300 nM, KLC2^TPR-myc 21 μM, Trp-JIP3^LZ two independent experiments, CSTN-WD1 one experiment", "description": "Kinesin-1 activation by JIP3 requires JIP3^LZ binding to KLC^TPR ([Watt et al., 2015]). How does JIP3^LZ binding to the KLC^TPR relieve KLC regulation of the kinesin-1 molecule? Tryptophan-acidic cargoes activate kinesin-1 by releasing the KLC LFP motif from the KLC^TPR ([Yip et al., 2016]). […] We therefore wondered whether JIP3^LZ binding to the KLC2^TPR allosterically regulates interactions between KLC2^TPR and the LFP motif. We investigated this using an in vitro, fluorescence anisotropy-based binding competition assay with purified proteins and peptides ([Yip et al., 2016]). […] Thus, JIP3 activates kinesin-1 by a different mechanism to tryptophan-acidic cargoes.\nThe binding affinity between the FITC-labelled LFP-motif peptide and the KLC2^TPR-myc was measured essentially as described previously ([Yip et al., 2016]). FITC-labelled LFP motif peptide (300 nM) was incubated with 2-fold dilutions of KLC2^TPR-myc in assay buffer (0.1 M NaCl, 25 mM HEPES, 5 mM MgCl2, 1 mM TCEP, final pH 7.5) in triplicate in 384-well plates, for 1 hour at room temperature. Fluorescence measurements were recorded on a TecanSpark plate reader at excitation and emission wavelengths of 488 nm and 535 nm respectively. Fluorescence anisotropy values were calculated at each KLC2^TPR-myc concentration and the data were fitted with a fixed-slope dose response curve in Prism (GraphPad). […]"}, "wild-type KLC2^TPR-myc": {"system": "wild-type KLC2^TPR-myc", "assay": "ITC of Trp-JIP3^LZ or FITC-CSTN-WD2 peptide into wild-type KLC2^TPR-myc", "assay_type": "binding, murine", "conditions": "n = 2", "experimental": "(§1) The Trp-JIP3^LZ protein used for CD and ITC experiments was prepared as described above for the JIP3^LZ, with the following modifications. Following 3C cleavage, contaminating GST3C was removed by incubation of the eluate with fresh, pre-equilibrated glutathione sepharose 4B resin for 2 hours at room temperature. The Trp-JIP3^LZ was then further purified by size exclusion chromatography using a Superdex 75 16/600 column equilibrated in 100 mM NaCl, 25 mM HEPES, 1 mM TCEP (final pH 7.5). Wild-type/mutant KLC2^TPR-myc samples used for CD and ITC experiments were prepared as described above the KLC2^TPR used in crystallographic studies. The Trp-JIP3^LZ and KLC2^TPR-myc samples used in the fluorescence anisotropy-based binding competition assays were prepared as for those used in the CD and ITC studies, but the final size-exclusion step was performed in 100 mM NaCl, 25 mM HEPES, 5mM MgCl2, 1 mM TCEP (final pH 7.5).\nTo study binding of the Trp-JIP3^LZ and FITC-CSTN-WD2 peptide to wild-type and mutant KLC2^TPR-myc, the recombinant proteins were prepared by size exclusion chromatography in 0.1 M NaCl, 25 mM HEPES, 1 mM TCEP, final pH 7.5. Wild-type or mutant KLC2^TPR-myc at 44-50 μM were placed in the cell. The Trp-JIP3^LZ was used as the titrant at dimer concentrations of 297-330 μM. The FITC-CSTN-WD2 peptide was used as the titrant at a concentration of 380 μM. The peptide concentration was determined by measuring the absorbance at 483 nm and using a molar extinction coefficient of 68,000 M^-1cm^-1. ITC experiments were performed as described above with injections spaced 120-150 s apart. Thermograms were integrated and corrected for heats of dilution using NITPIC (http://biophysics.swmed.edu/MBR/software.html). The resulting isotherms were analysed in SEDPHAT. Data for the Trp-JIP3^LZ as titrant were fitted with the A + B + B → AB + B → ABB model, whilst binding of the FITC-CSTN-WD2 peptide was analysed using the A + B → AB model. Between 2 and 3 experiments were performed for each titrand/titrant pair. For each titrand/titrant pair, the isotherms from the experiments were globally fitted with the relevant model. […] During fitting, the FITC-CSTN-WD2 peptide concentrations consistently refined to values around 30% greater than the measured value of 380 μM, with Napp values around 0.7 (Table S2). We ascribe this to an under-quantification of the FITC-CSTN-WD2 peptide concentration since the peptide contains a single tryptophan-acidic motif, and the concentration values for experiments with Trp-JIP3^LZ as ligand refined close to their measured values."}, "[1]": {"system": "KLC2^TPR-myc Tyr^208Ala (Y208A)", "assay": "ITC of FITC-CSTN-WD2 peptide into Y208A KLC2^TPR-myc", "assay_type": "binding, murine", "conditions": "n = 2", "description": "(§2) The KLC2^TPR construct used in this work comprised murine KLC2 residues 191-480, which is similar to those used in previous studies ([Nguyen et al., 2017], [Zhu et al., 2012]) but with a slightly longer N-terminal region to include residues 191-194, which are very highly conserved in Bilaterian KLCs. To construct the pMW-His6-SUMO-KLC2^TPR vector, the sequence encoding KLC2^TPR (residues 191-480) was amplified by PCR from a murine template ([Dodding et al., 2011]) and cloned into the NotI/EcoRI sites of pMW his-SUMO. The His6-SUMO- KLC2^TPR-myc vectors were constructed likewise, but using a reverse primer sequence encoding the KLC^TPR C-terminal region up to residue 480, a BglII site, and an in-frame myc-tag sequence, thus fusing the amino acid sequence […] to the KLC2^TPR C-terminus. KLC2^TPR-myc mutants (Thr^200Asp, Tyr^208Ala, Gln^223Lys and Arg^312Glu) were generated by overlap PCR.\nas §1, with “Wild-type/mutant KLC2^TPR-myc samples used for CD and ITC experiments were prepared as described above the KLC2^TPR used in crystallographic studies.” left out\n(§3) To study binding of the Trp-JIP3^LZ and FITC-CSTN-WD2 peptide to wild-type and mutant KLC2^TPR-myc, the recombinant proteins were prepared by size exclusion chromatography in 0.1 M NaCl, 25 mM HEPES, 1 mM TCEP, final pH 7.5. […] The peptide concentration was determined by measuring the absorbance at 483 nm and using a molar extinction coefficient of 68,000 M^-1cm^-1. […] The resulting isotherms were analysed in SEDPHAT. Data for the Trp-JIP3^LZ as titrant were fitted with the A + B + B → AB + B → ABB model, whilst binding of the FITC-CSTN-WD2 peptide was analysed using the A + B → AB model. […] During fitting, the FITC-CSTN-WD2 peptide concentrations consistently refined to values around 30% greater than the measured value of 380 μM, with Napp values around 0.7 (Table S2). We ascribe this to an under-quantification of the FITC-CSTN-WD2 peptide concentration since the peptide contains a single tryptophan-acidic motif, and the concentration values for experiments with Trp-JIP3^LZ as ligand refined close to their measured values."}, "[2]": {"system": "KLC2^TPR-myc Thr^200Asp (T200D)", "assay": "ITC of FITC-CSTN-WD2 peptide into T200D KLC2^TPR-myc", "assay_type": "binding, murine", "conditions": "25°C, 0.1 M NaCl, n = 3", "description": "as §2\nThe Trp-JIP3^LZ protein used for CD and ITC experiments was prepared as described above for the JIP3^LZ, with the following modifications. […] The Trp-JIP3^LZ and KLC2^TPR-myc samples used in the fluorescence anisotropy-based binding competition assays were prepared as for those used in the CD and ITC studies, but the final size-exclusion step was performed in 100 mM NaCl, 25 mM HEPES, 5mM MgCl2, 1 mM TCEP (final pH 7.5).\nas §3, with “We ascribe this to an under-quantification of the FITC-CSTN-WD2 peptide concentration since the peptide contains a single tryptophan-acidic motif, and the concentration values for experiments with Trp-JIP3^LZ as ligand refined close to their measured values.” left out"}, "KLC2 L220Y mutant": {"system": "KLC2 L220Y mutant", "assay": "ITC of FITC-CSTN-WD2 peptide into L220Y KLC2^TPR-myc", "assay_type": "binding, murine", "conditions": "25°C, 0.1 M NaCl, n = 2", "experimental": "as §1\nas §3, with “7.5. Wild-type or mutant KLC2^TPR-myc at 44-50 μM were placed in the cell. The Trp-JIP3^LZ was used as the titrant at dimer concentrations of 297-330 μM.” for “7.5.”"}, "[3]": {"system": "wild-type and mutant KLC2^TPR-myc", "assay": "ITC with wild-type and/or TPR1-mutant KLC2^TPR-myc (collective statements)", "assay_type": "binding, murine", "experimental": "as §1\nTo study binding of the Trp-JIP3^LZ and FITC-CSTN-WD2 peptide to wild-type and mutant KLC2^TPR-myc, the recombinant proteins were prepared by size exclusion chromatography in 0.1 M NaCl, 25 mM HEPES, 1 mM TCEP, final pH 7.5. […] The peptide concentration was determined by measuring the absorbance at 483 nm and using a molar extinction coefficient of 68,000 M^-1cm^-1. […] The resulting isotherms were analysed in SEDPHAT. […]"}, "[4]": {"conditions": "FITC-CSTN-WD2, 25°C, 0.1 M NaCl, pH 7.5, global fit"}, "[5]": {"conditions": "25°C, 0.1 M NaCl, pH 7.5, global fit"}, "[6]": {"conditions": "25 mM HEPES, 1 mM TCEP, pH 7.5, A + B → AB model, global fit"}}, "note": "No end group written: not given here. *: point of attachment. FITC = O=C1OC2(c3ccc(O)cc3Oc3cc(O)ccc32)c2ccc(NC(=S)*)cc21"}
{"substance": "Ac-GKENEMDWDDSALTITVN [CSTN-WD1]", "values": [{"measurement": "effect on binding of KLC2^TPR-myc to FITC-labeled LFP motif peptide", "setting": "KLC2^TPR-myc", "value": "blocked binding"}]}
{"substance": "{FITC}-TRQLEWDDSTL-OH [FITC-CSTN-WD2, FITC-labeled tryptophan-acidic calsyntenin-1 peptide]", "values": [{"measurement": "K, macroscopic association constant", "setting": "wild-type KLC2^TPR-myc; FITC-CSTN-WD2, 25°C, 0.1 M NaCl, 25 mM HEPES, 1 mM TCEP, pH 7.5, A + B → AB model, global fit", "value": 0.820, "unit": "µM⁻¹"}, {"measurement": "-TΔS", "setting": "wild-type KLC2^TPR-myc; [4]", "value": -3.762, "unit": "kcal/mol"}, {"measurement": "ΔH", "setting": "wild-type KLC2^TPR-myc; [4]", "value": -4.305, "unit": "kcal/mol"}, {"measurement": "Napp, apparent binding stoichiometry", "setting": "wild-type KLC2^TPR-myc; FITC-CSTN-WD2, mean ± standard deviation", "value": "0.67 ± 0.08"}, {"measurement": "K, macroscopic association constant", "setting": "[1]; 25°C, 0.1 M NaCl, 25 mM HEPES, 1 mM TCEP, pH 7.5, A + B → AB model, global fit", "value": 0.541, "unit": "µM⁻¹"}, {"measurement": "-TΔS", "setting": "[1]; [5]", "value": -4.463, "unit": "kcal/mol"}, {"measurement": "ΔH", "setting": "[1]; [5]", "value": -3.358, "unit": "kcal/mol"}, {"measurement": "Napp, apparent binding stoichiometry", "setting": "[1]; mean ± standard deviation", "value": "0.67 ± 0.07"}, {"measurement": "K, macroscopic association constant", "setting": "[2]; [6]", "value": 0.845, "unit": "µM⁻¹"}, {"measurement": "-TΔS", "setting": "[2]; pH 7.5, global fit", "value": -3.911, "unit": "kcal/mol"}, {"measurement": "ΔH", "setting": "[2]; pH 7.5, global fit", "value": -4.174, "unit": "kcal/mol"}, {"measurement": "K, macroscopic association constant", "setting": "KLC2 L220Y mutant; [6]", "value": 0.739, "unit": "µM⁻¹"}, {"measurement": "-TΔS", "setting": "KLC2 L220Y mutant; pH 7.5, global fit", "value": -4.104, "unit": "kcal/mol"}, {"measurement": "ΔH", "setting": "KLC2 L220Y mutant; pH 7.5, global fit", "value": -3.902, "unit": "kcal/mol"}, {"measurement": "Napp values", "setting": "[3]; FITC-CSTN-WD2, wild-type and mutant KLC2^TPR-myc, ascribed to under-quantification of the peptide concentration", "value": "around 0.7"}, {"measurement": "effect of the three TPR1 mutations on binding", "setting": "[3]; all three mutations in TPR1 of KLC2^TPR-myc, ITC", "value": "only minor effects on binding"}]}
